# Where a SMILES comes first, the peptide text is derived from it.
# Assay: Peak sweetness intensity perception relative to sucrose (potency-normalized comparison)
# Set-up: key: Quick: display a peak sweetness intensity faster than that experienced for sucrose; Slow: display a peak sweetness intensity slower than that experienced for sucrose
# Conditions: sucrose as reference
# Source text: The sweeteners listed in TABLE 1 have been categorized with respect to their peak sweetness intensity perception relative to sucrose as either quick or slow. Those sweeteners that have been categorized as “quick” display a peak sweetness intensity faster than that experienced for sucrose. Those sweeteners that have been categorized as “slow” display a peak sweetness intensity slower than that experienced for sucrose. Comparisons of peak sweetness intensity are made using potency-normalized comparisons to account for the different amounts of each ingredient to experience the same absolute peak sweetness.
row,Compound,Onset Speed Relative to Sucrose
1,OC[C@H]1O[C@H](O[C@]2(CCl)O[C@H](CCl)[C@@H](O)[C@@H]2O)[C@H](O)[C@@H](O)[C@H]1Cl [Sucralose],Slow
2,COC(=O)[C@H](Cc1ccccc1)NC(=O)[C@H](CC(=O)O)NCCC(C)(C)C [Neotame],Slow
3,OC[C@@H](O)[C@@H](O)[C@H](O)[C@@H](O)CO [Sorbitol],Quick
4,OC[C@@H](O)[C@@H](O)CO [Erythritol],Quick
5,OC[C@@H](O)[C@H](O)[C@@H](O)CO [Xylitol],Quick
6,O=C1NS(=O)(=O)c2ccccc21 [Saccharin],Quick
7,COC(=O)[C@H](Cc1ccccc1)NC(=O)[C@@H](N)CC(=O)O [Aspartame] (H-Asp-Phe-OMe),Slow
8,Steviosides,Slow
9,CC1=CC(=O)NS(=O)(=O)O1 [Acesulfame K],Quick

# Reference: patent US20220304918A1, “Oral Compositions Comprising Hops And Sweeteners” (The Proctor & Gamble Company, priority 2021, published 2022)
